According to US9758527B2, “Cyclohexene derivative, preparation method therefor, and pharmaceutical composition for preventing or treating metabolic diseases, containing same as active ingredient” (HYUNDAI PHARM CO., LTD., priority 2014, dated 2017):
Read-outs that look alike come from different tables or passages of the source.

Biological target: T1, G protein-coupled receptor 119 (GPR-119) (Mesocricetus auratus, UniProt A0A1U8CD06)
T1 construct: hamster-derived β-cells containing G protein-coupled receptor 119 (GPR-119), HIT-T15 cells; host or cells: HIT-T15 (hamster pancreatic β-cells)
T1 sequence (A0A1U8CD06 1-334): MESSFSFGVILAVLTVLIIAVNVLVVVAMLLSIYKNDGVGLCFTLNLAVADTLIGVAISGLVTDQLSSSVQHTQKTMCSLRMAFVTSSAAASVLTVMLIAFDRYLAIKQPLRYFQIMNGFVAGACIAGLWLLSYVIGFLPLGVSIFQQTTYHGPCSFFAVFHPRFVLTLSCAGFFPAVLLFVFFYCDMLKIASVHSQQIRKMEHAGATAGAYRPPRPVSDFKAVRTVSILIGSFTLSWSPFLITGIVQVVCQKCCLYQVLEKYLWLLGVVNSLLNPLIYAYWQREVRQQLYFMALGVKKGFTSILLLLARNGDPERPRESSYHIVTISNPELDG
Assay: Evaluation of cAMP activity in HIT-T15 cells (HTRF cAMP dynamic kit)
Assay type: cell-based, hamster
Details: cAMP activation
Method: To check whether the cyclohexene derivatives according to the present invention activate cyclic adenosine monophosphate (cAMP), experiments were carried out, as follows.
The HIT-T15 cells were plated on a 96-well plate at 60,000 cells per well. On the next day of plating, the cells were treated with a varying concentration of each of the example compounds according to the present invention, and incubated at 37° C. for an hour. In this case, each of the treated compounds was used at six concentrations, ranging from […], to treat the cells.
The cyclic adenosine monophosphate (cAMP) activity was measured according to the manufacturer's instruction using a cAMP dynamic kit commercially available from Cis Bio Inc. (Bedford, Mass.). The cells were lysed, and a level of cAMP was determined by a competitive immunoassay using D2-labeled cAMP and a cryptate-labeled anti-cAMP antibody. Fluorescence was read in Flex Station (Molecular Devices). […] Unlabeled cAMP in the cell lysate competed with the D2-labeled cAMP against the cryptate-labeled antibody. Since a decrease in the measured intensity of the FRET signals represents a level of cAMP in the cells, the cAMP activities of the compounds are calculated as a change in FRET signals by adjusting an amount of dimethyl sulfoxide (DMSO).

[1] = 1 h at 37° C., six concentrations, read-out: EC50

Structure (SMILES) | EC50 [1] [µM] | EC50 (read-out: EC50 value) [µM]
CC(C)(C)OC(=O)N1CCC(COc2ccc(C3=CCC(C(=O)N4CC[C@H](F)C4)CC3)cc2F)CC1 (stereo partly drawn) [Example 57, tert-butyl 4-((2-fluoro-4-(4-((S)-3-fluoropyrrolidine-1-carbonyl)cyclohex-1-enyl)phenoxy)methyl)piperidine-1-carboxylate] | 0.008 | ≤ 0.05
CC(C)(C)OC(=O)N1CCC(COc2ccc(C3=CCC(C(=O)N4CC[C@@H](F)C4)CC3)cc2F)CC1 (stereo partly drawn) [Example 58, tert-butyl 4-((2-fluoro-4-(4-((R)-3-fluoropyrrolidine-1-carbonyl)cyclohex-1-enyl)phenoxy)methyl)piperidine-1-carboxylate] |  | ≤ 0.05
C[C@@H](CO)NC(=O)C1CC=C(c2ccc(OCC3CCN(C(=O)OC(C)(C)C)CC3)c(F)c2)CC1 (stereo partly drawn) [Example 59, tert-butyl 4-((2-fluoro-4-(4-((S)-1-hydroxypropan-2-ylcarbamoyl)cyclohex-1-enyl)phenoxy)methyl)piperidine-1-carboxylate] | 0.078 | 
C[C@H](CO)NC(=O)C1CC=C(c2ccc(OCC3CCN(C(=O)OC(C)(C)C)CC3)c(F)c2)CC1 (stereo partly drawn) [Example 60, tert-butyl 4-((2-fluoro-4-(4-((R)-1-hydroxypropan-2-ylcarbamoyl)cyclohex-1-enyl)phenoxy)methyl)piperidine-1-carboxylate] | 0.04 | ≤ 0.05
C[C@H](O)CNC(=O)C1CC=C(c2ccc(OCC3CCN(C(=O)OC(C)(C)C)CC3)c(F)c2)CC1 (stereo partly drawn) [Example 61, tert-butyl 4-((2-fluoro-4-(4-((S)-2-hydroxypropylcarbamoyl)cyclohex-1-enyl)phenoxy)methyl)piperidine-1-carboxylate] | 0.045 | ≤ 0.05
C[C@@H](O)CNC(=O)C1CC=C(c2ccc(OCC3CCN(C(=O)OC(C)(C)C)CC3)c(F)c2)CC1 (stereo partly drawn) [Example 62, tert-butyl 4-((2-fluoro-4-(4-((R)-2-hydroxypropylcarbamoyl)cyclohex-1-enyl)phenoxy)methyl)piperidine-1-carboxylate] | 0.07 | 
CC(C)(C)OC(=O)N1CCC(COc2ccc(C3=CCC(C(=O)NC[C@H](O)CO)CC3)cc2F)CC1 (stereo partly drawn) [Example 63, tert-butyl 4-((4-(4-((S)-2,3-dihydroxypropylcarbamoyl)cyclohex-1-enyl)-2-fluorophenoxy)methyl)piperidine-1-carboxylate] | 0.11 | 
CC(C)(C)OC(=O)N1CCC(COc2ccc(C3=CCC(C(=O)NC[C@@H](O)CO)CC3)cc2F)CC1 (stereo partly drawn) [Example 64, tert-butyl 4-((4-(4-((R)-2,3-dihydroxypropylcarbamoyl)cyclohex-1-enyl)-2-fluorophenoxy)methyl)piperidine-1-carboxylate] | 0.05 | ≤ 0.05
CC(C)c1noc(N2CCC(COc3ccc(C4=CCC(C(=O)N5CCC5)CC4)cc3)CC2)n1 (stereo not drawn) [Example 65, azetidin-1-yl(4-(4-((1-(3-isopropyl-1,2,4-oxadiazol-5-yl)piperidin-4-yl)methoxy)phenyl)cyclohex-3-enyl)methanone] | 0.041 | ≤ 0.05
CC(C)c1noc(N2CCC(COc3ccc(C4=CCC(C(=O)N5CCOCC5)CC4)cc3)CC2)n1 (stereo not drawn) [Example 66, (4-(4-((1-(3-isopropyl-1,2,4-oxadiazol-5-yl)piperidin-4-yl)methoxy)phenyl)cyclohex-3-enyl)(morpholino)methanone] | 0.018 | ≤ 0.05
CC(C)(C)OC(=O)N1CCC(COc2ccc(C3=CCC(C(=O)NC(CO)CO)CC3)cc2F)CC1 (stereo not drawn) [Example 67, tert-butyl 4-((4-(4-(1,3-dihydroxypropan-2-ylcarbamoyl)cyclohex-1-enyl)-2-fluorophenoxy)methyl)piperidine-1-carboxylate] | 0.06 | 
CC(C)(C)OC(=O)N1CCC(COc2ccc(C3=CCC(C(=O)NC(CO)CO)CC3)cn2)CC1 (stereo not drawn) [Example 68, tert-butyl 4-((5-(4-(1,3-dihydroxypropan-2-ylcarbamoyl)cyclohex-1-enyl)pyridin-2-yloxy)methyl)piperidine-1-carboxylate] | 0.3 | 
